Source: ChEMBL document CHEMBL3637782, “GSK Tres Cantos Follow-up TB Screening Data” (2016)
≈ marks a conversion by molar mass, not a printed value.

Legend:
[1] = system: Mycobacterium tuberculosis H37Rv; test: GSK_TB: Minimum inhibitory concentration against H37Rv stain of Mycobacterium tuberculosis using MABA method; format: functional; settings: ATCC25618
[2] = system: Mycobacterium tuberculosis H37Rv; test: GSK_TB: Inhibition of the intracellular growth of Mycobacterium tuberculosis (pXC50); format: functional, ATCC25618
HepG2 = test: GSK_TB: The cytotoxicity against HepG2 cells expressed as IC50; format: functional, cell-based; settings: Homo sapiens
[3] = GSK_TB: Kinetic solubility of the compound in phosphate buffered saline at pH 7.4 after 1 hr by CLND method; format: physicochemical
[4] = GSK_TB: Lipophilicity, log D of the compound at pH 7.4 by ChromlogD analysis; format: physicochemical; settings: buffer
[5] = GSK_TB: AVG_CHROM_LOGP; format: physicochemical

Compound | MIC [1] [µM] | pXC50 [2] | IC50 (HepG2) [µM] | solubility kinetic at 1 h [3] [µg/mL] | Lipophilicity [4] | Lipophilicity [5]
NC(=O)c1ccc(CN(C2CC2)S(=O)(=O)c2ccccc2F)cc1 | 3.75 (≈ 1.31 µg/mL) | 6.7 | > 100 | 133 (≈ 382 µM) | 3.75 | 3.79
Fc1cccc(Oc2cc(C3CCCNC3)nc(-c3ccncc3)n2)c1 (stereo not drawn) | 10 (≈ 3.5 µg/mL) | – | 50 | 64 (≈ 183 µM) | 2.9 | 5.1281
O=S(=O)(NCc1ccccc1)c1ccc(-c2cc3ccncc3cc2OC2CCNCC2)s1 | 2.5 (≈ 1.2 µg/mL) | 5.4 | 10 | 33 (≈ 68.8 µM) | 3.2 | 4.4101
NS(=O)(=O)c1ccc(Nc2cnc3ccccc3n2)cc1 | 2 (≈ 0.601 µg/mL) | <4.3 | > 100 | 112 (≈ 373 µM) | 1.07 | 2.5171
CC1CC1c1ccc(CN2CCc3nc(Nc4ccccc4)sc3CC2)o1 (stereo not drawn) | 5.6 (≈ 2.13 µg/mL) | – | 40 | 54 (≈ 142 µM) | 7.64 | 8.1798
Cc1nc(Nc2cnn(Cc3ccccc3F)c2)c2nn(C)c(C)c2n1 | 4 (≈ 1.41 µg/mL) | 6 | > 100 | 23 (≈ 65.5 µM) | 3.41 | 3.4146
CCCC/C=C/c1cc2ccncc2cc1OC1CCNCC1 | 1.6 (≈ 0.497 µg/mL) | 5.9 | 16 | 36 (≈ 116 µM) | 3.61 | 7.3475
CC(C)N(C(=O)CNc1ccccc1Nc1ccccc1)c1ccccc1 | 5.6 (≈ 2.01 µg/mL) | 5.7 | 50 | 8 (≈ 22.3 µM) | 7.73 | 8.1308
N#Cc1cccc(-c2ccc(NC[C@H]3CC[C@]4(CC3)CN(c3cccnn3)C(=O)O4)nc2)c1 | 10 (≈ 4.41 µg/mL) | 5.6 | 40 | 11 (≈ 25 µM) | 4.96 | 4.9649
COc1ccc(CN2CCN(C(=O)/C=C/c3csc(C)n3)CC2)cc1 | 10 (≈ 3.57 µg/mL) | 5.7 | 80 | ≥ 116 | 4.13 | 4.1653
Cn1cc(CCNC(=O)Nc2ccc(N3CCCCC3)nc2)cn1 | 5 (≈ 1.64 µg/mL) | 4.7 | > 100 | – | 2.97 | 2.974
O=C(NCc1ccco1)N1CCN(Cc2ccc(Cl)s2)CC1 | 2 (≈ 0.68 µg/mL) | 5.6 | > 100 | 98 (≈ 288 µM) | 4.82 | 4.8996
O=C(Nc1nc2c(s1)CCCc1cccnc1-2)c1ccccc1C(F)(F)F | 3.7 (≈ 1.44 µg/mL) | 6.2 | 79 | 9 (≈ 23.1 µM) | 5.26 | 5.2587
CCCCNCC1COc2ccc(OC)cc2C1=O (stereo not drawn) | 5 (≈ 1.32 µg/mL) | 5.3 | 12 | 118 (≈ 448 µM) | 2.99 | 5.6014
Nc1ccc(C(O)CNCCc2ccccc2)cc1O (stereo not drawn) | 2.9 (≈ 0.79 µg/mL) | 4.97 | 50 | 53 (≈ 195 µM) | 0.97 | 1.7338
Cc1ccc2oc(SCC(=O)Nc3nccs3)nc2n1 | 5.6 (≈ 1.72 µg/mL) | <4.3 | 40 | 31 (≈ 101 µM) | 3.01 | 3.0066
O=[N+]([O-])c1cnc(-c2nc3ccccc3[nH]2)s1 | 4.4 (≈ 1.08 µg/mL) | <4.3 | 10 | 16 (≈ 65 µM) | 3.17 | 4.459
CNc1nc(SC)nnc1-c1cccc(Cl)c1Cl | 2.5 (≈ 0.753 µg/mL) | 6.1 | > 100 | ≥ 85 | 4.94 | 4.9976
CC(C)Oc1ccc(-c2nnc(-c3ccc4c(c3)CCNCC4)s2)cc1Cl | 10 (≈ 4 µg/mL) | 5.5 | 16 | 5 (≈ 12.5 µM) | 4.92 | 7.5923
O=C(NCc1ccco1)N1CCN(Cc2ccc3c(c2)CCO3)CC1 | 2 (≈ 0.683 µg/mL) | 5.8 | > 100 | 88 (≈ 258 µM) | 3.47 | 3.5941
O=C(NCCO)c1c(O)c2ncc(Cc3ccc(F)cc3C(F)(F)F)cc2[nH]c1=O | 7.5 (≈ 3.19 µg/mL) | 5.7 | > 100 | 10 (≈ 23.5 µM) | 3.74 | 3.9858
O=C(Nc1nc(-c2ccccn2)cs1)N1CCC(Cc2ccc(F)cc2)CC1 | 10 (≈ 3.96 µg/mL) | 6.1 | 25 | 4 (≈ 10.1 µM) | 6.09 | 6.3357

Compound | MIC [1] [µM] | pXC50 [2] | IC50 (HepG2) [µM] | solubility kinetic at 1 h [3] [µg/mL] | Lipophilicity [4] | Lipophilicity [5]
Cc1ccc2c(c1)c(=O)cc(C(F)(F)F)n2CCNC(=O)c1ccccn1 | 10 (≈ 3.75 µg/mL) | 5.6 | > 100 | 6 (≈ 16 µM) | 5.84 | 6.1236
Cc1c(C(=O)NCCOc2ccccc2)[nH]c2c1C(=O)CCC2 | 10 (≈ 3.12 µg/mL) | 5 | 100 | 46 (≈ 147 µM) | 3.62 | 3.8226
c1ccc(-c2ncc(-c3ccc(OCCCn4ccnc4)cc3)s2)cc1 | 5 (≈ 1.81 µg/mL) | 5.3 | 25 | 3 (≈ 8.3 µM) | 6.42 | 6.7437
NC(=O)c1cc2ccc(CC(=O)c3cccs3)cc2s1 | 3.8 (≈ 1.15 µg/mL) | 6 | > 100 | 8 (≈ 26.5 µM) | 3.62 | 3.7247
CCOCn1ccc(NS(=O)(=O)c2ccc(N)cc2)nc1=O | 4.7 (≈ 1.52 µg/mL) | 4.9 | > 100 | 52 (≈ 160 µM) | 0.66 | 0.7057
FC(F)(F)Oc1ccc(-c2cc3ccncc3cc2OC2CCNCC2)cc1 | 5 (≈ 1.94 µg/mL) | 5.5 | 16 | 82 (≈ 211 µM) | 3.47 | 6.8742
COc1ccc(-c2nnc3sc(Cc4csc(C)n4)nn23)cc1 | 2.5 (≈ 0.859 µg/mL) | 5.7 | > 100 | 95 (≈ 277 µM) | 3.97 | 4.0511
COc1ccc(CCNC(=O)C2(n3cnnn3)CCCCC2)cc1 | 8 (≈ 2.64 µg/mL) | 5.7 | > 100 | ≥ 226 | 2.43 | 3.1698
COC(=O)c1ccc(Oc2ccc(-c3csc(C)n3)cc2F)nn1 | 5.6 (≈ 1.93 µg/mL) | <4.3 | > 100 | 17 (≈ 49.2 µM) | 4.83 | 4.8996
Nc1ccc(S(=O)(=O)Nc2ccnn2-c2ccccc2)cc1 [SULFAPHENAZOLE] | 10 (≈ 3.14 µg/mL) | <4.3 | > 100 | ≥ 167 | 1.08 | 2.8435
CC(C)c1noc(N2CCC([C@H](C)Oc3cnc(-c4ccc(S(C)(=O)=O)c(F)c4)cn3)CC2)n1 | 6 (≈ 2.94 µg/mL) | 5.2 | 25 | 13 (≈ 26.6 µM) | 6.69 | –
N#Cc1ncn(-c2ccc3nnc(C(F)(F)F)n3n2)n1 | 5 (≈ 1.4 µg/mL) | <4.3 | > 100 | ≥ 105 | 3.31 | 3.3167
O=C(O)CCc1nc2ccccc2oc1=O | 8 (≈ 1.75 µg/mL) | <4.3 | > 100 | 63 (≈ 287 µM) | 0.04 | 2.3212
CNc1snc(C)c1C(=O)NCCOc1ccc(OC)cc1 | 2.5 (≈ 0.804 µg/mL) | 5.7 | > 100 | 121 (≈ 376 µM) | 4.24 | 4.2469
NCC(c1cccs1)S(=O)(=O)c1ccccc1 (stereo not drawn) | 2 (≈ 0.535 µg/mL) | – | 32 | ≥ 134 | 2.5 | 2.5334
O=C(NCc1ccoc1)N1CCN(Cc2ccc3c(c2)OCO3)CC1 | 1.25 (≈ 0.429 µg/mL) | 6.3 | > 100 | 86 (≈ 250 µM) | 3.48 | 3.5288
Clc1nnc(N2CCCC2)c2ccccc12 | 4 (≈ 0.935 µg/mL) | 5.8 | > 100 | ≥ 100 | 4.41 | 4.4101
COc1ccc(Nc2nc(N[C@@H]3CCNC3)nc3cc[nH]c(=O)c23)cc1NC(=O)c1ccccc1 | 5 (≈ 2.36 µg/mL) | 5.5 | 25 | 106 (≈ 226 µM) | 2.41 | 3.1698
Fc1ccc(Cc2nnc(-c3ccnc(Nc4ccc(OCCN5CCOCC5)cc4)n3)[nH]2)cc1 | 5.6 (≈ 2.66 µg/mL) | 5.8 | 40 | 69 (≈ 145 µM) | 3.84 | 3.8389
CCCCc1ccc(C(=O)Nc2nnc(S(=O)(=O)CCCC)s2)nc1 | 10 (≈ 3.83 µg/mL) | 5.6 | 20 | 1.5 (≈ 3.92 µM) | 6.01 | 7.3965
CCOc1cc2ccccc2cc1C(=O)NC | 10 (≈ 2.29 µg/mL) | 5.3 | > 100 | 64 (≈ 279 µM) | 4.43 | 4.6549
